In ChEMBL document CHEMBL5518181, “Studies of antibacterial activity (in vitro and in vivo) and mode of action for des-acyl tridecaptins (DATs)” (Eur J Med Chem, 2024):
≈ marks a conversion by molar mass, not a printed value. Blank lines part the entries; values can stand above or below the molecule they belong to.

Legend:
[1] = Binding affinity to gram negative bacterial lipid II assessed as dissociation constant by ITC analysis; design: species or system Bacteria
[2] = system: Lipopolysaccharide (LPS); test: Binding affinity to Escherichia coli O55:B5 LPS assessed as dissociation constant by ITC analysis; type: subcellular
[3] = Hemolytic activity in human red blood cells at 400 ug/ml incubated for 45 mins by spectrophotometric analysis relative to control; type: toxicity, cell-based, Erythrocyte; details: red blood cells (erythrocytes), at 400 µg/mL, read-out: Activity
[4] = Cytotoxicity against human HepG2 cells incubated for 40 hrs by celltiter-glo luminescent cell viability assay; type: toxicity, cell-based
[5] = system: Klebsiella pneumoniae; test: Antibacterial activity against wild-type Klebsiella pneumoniae ATCC 13883 assessed as inhibition of bacterial growth incubated for 18 hrs; type: functional; details: for MIC: read-out: MIC100
[6] = system: Escherichia coli; test: Antibacterial activity against wild-type Escherichia coli ATCC 25922 assessed as inhibition of bacterial growth incubated for 18 hrs; type: functional; details: for MIC: read-out: MIC100
[7] = system: Serratia marcescens; test: Antibacterial activity against intrinsically colistin resistant Serratia marcescens ATCC 13880 assessed as inhibition of bacterial growth incubated for 18 hrs; type: functional
[8] = system: Providencia stuartii; test: Antibacterial activity against Providencia stuartii ATCC 25826 assessed as inhibition of bacterial growth incubated for 18 hrs; type: functional
[9] = system: Klebsiella pneumoniae; test: Antibacterial activity against Klebsiella pneumoniae panel (100 strains) assessed as inhibition of bacterial growth; type: functional
[10] = system: Escherichia coli; test: Antibacterial activity against colistin resistant Escherichia coli NCTC 13846 harboring mcr-1 gene assessed as inhibition of bacterial growth incubated for 18 hrs; type: functional
[11] = system: Escherichia coli; test: Antibacterial activity against Escherichia coli Swiss 7 harboring mcr-1 gene assessed as inhibition of bacterial growth incubated for 18 hrs; type: functional
[12] = system: Klebsiella pneumoniae; test: Antibacterial activity against Klebsiella pneumoniae ATCC 43816 assessed as inhibition of bacterial growth incubated for 18 hrs; type: functional
[13] = system: Klebsiella pneumoniae; test: Antibacterial activity against Klebsiella pneumoniae ATCC BAA-2470 expressing NDM-1 assessed as inhibition of bacterial growth incubated for 18 hrs; type: functional
[14] = system: Escherichia coli; test: Antibacterial activity against Escherichia coli Swiss 9 harboring mcr-1 gene assessed as inhibition of bacterial growth incubated for 18 hrs; type: functional
[15] = system: Morganella morganii; test: Antibacterial activity against Morganella morganii ATCC 25830 assessed as inhibition of bacterial growth incubated for 18 hrs; type: functional
[16] = system: Klebsiella aerogenes; test: Antibacterial activity against Enterobacter aerogenes ATCC 13048 assessed as inhibition of bacterial growth incubated for 18 hrs; type: functional
[17] = system: Proteus mirabilis; test: Antibacterial activity against Proteus mirabilis ATCC 25933 assessed as inhibition of bacterial growth incubated for 18 hrs; type: functional
[18] = system: Staphylococcus aureus; test: Antibacterial activity against wild type Staphylococcus aureus USA300 assessed as inhibition of bacterial growth incubated for 18 hrs; type: functional
[19] = system: Escherichia coli; test: Antibacterial activity against Escherichia coli panel (100 strains) assessed as inhibition of bacterial growth; type: functional
[20] = system: Salmonella typhimurium; test: Antibacterial activity against Salmonella typhimurium ATCC 13311 assessed as inhibition of bacterial growth incubated for 18 hrs; type: functional; details: Salmonella enterica subsp. enterica serovar Typhimurium
[21] = system: Escherichia coli; test: Antibacterial activity against Escherichia coli ATCC BAA-2469 expressing NDM-1 assessed as inhibition of bacterial growth incubated for 18 hrs; type: functional
[22] = system: Pseudomonas aeruginosa; test: Antibacterial activity against efflux-deficient Pseudomonas aeruginosa PAO750 assessed as inhibition of bacterial growth incubated for 18 hrs; type: functional
[23] = system: Citrobacter freundii; test: Antibacterial activity against Citrobacter freundii ATCC 8090 assessed as inhibition of bacterial growth incubated for 18 hrs; type: functional
[24] = system: Enterobacter cloacae; test: Antibacterial activity against Enterobacter cloacae ATCC 23355 assessed as inhibition of bacterial growth incubated for 18 hrs; type: functional

Kd [1]: 0.58 µM
MIC [5]: 64 µg/mL (≈ 45.9 µM)
MIC [6]: 16 µg/mL (≈ 11.5 µM)
Molecule: CC[C@@H](C)[C@@H](NC(=O)[C@@H](NC(=O)[C@H](CCC(=O)O)NC(=O)[C@H](Cc1ccccc1)NC(=O)[C@@H](CCN)NC(=O)[C@H](CCN)NC(=O)[C@H](CO)NC(=O)[C@@H](Cc1c[nH]c2ccccc12)NC(=O)[C@@H](CO)NC(=O)CNC(=O)[C@@H](CCN)NC(=O)[C@H](N)C(C)C)C(C)C)C(=O)N[C@@H](C)C(N)=O
Kd [2]: 11.4 µM
hemolysis at 0.75 h, 400 ug/ml [3]: 0.4%
IC50 at 40 h [4]: > 170 µg/mL

Molecule: COLISTIN
MIC100 [7]: > 32 µg/mL
MIC100 [8]: > 32 µg/mL
MIC50 [9]: 0.5 µg/mL
MIC90 [9]: > 16 µg/mL
MIC100 [10]: 8 µg/mL
MIC100 [11]: 8 µg/mL
MIC100 [12]: 1 µg/mL
MIC100 [13]: 4 µg/mL
MIC100 [14]: 8 µg/mL
MIC100 [5]: 2 µg/mL
MIC100 [15]: > 32 µg/mL
MIC100 [16]: 2 µg/mL
MIC100 [17]: > 32 µg/mL
MIC100 [18]: > 32 µg/mL
MIC50 [19]: < 0.125 µg/mL
MIC90 [19]: 4 µg/mL
MIC100 [20]: 2 µg/mL
MIC100 [21]: 2 µg/mL
MIC100 [22]: 2 µg/mL
MIC100 [6]: 0.5 µg/mL
MIC100 [23]: 2 µg/mL
MIC100 [24]: 2 µg/mL

Kd [1]: 4.8 µM
MIC [5]: 1 µg/mL (≈ 0.663 µM)
MIC [6]: 1 µg/mL (≈ 0.663 µM)
Molecule: CC[C@H](C)[C@H](N)C(=O)N[C@@H](C(=O)N[C@H](CCN)C(=O)NCC(=O)N[C@H](CO)C(=O)N[C@H](Cc1c[nH]c2ccccc12)C(=O)N[C@@H](CO)C(=O)N[C@@H](CCN)C(=O)N[C@H](CCN)C(=O)N[C@@H](Cc1ccccc1)C(=O)N[C@@H](CCC(=O)O)C(=O)N[C@H](C(=O)N[C@@H](C(=O)N[C@@H](C)C(=O)O)[C@@H](C)CC)C(C)C)C(C)C
Kd [2]: 0.088 µM
hemolysis at 0.75 h, 400 ug/ml [3]: 56.9%
IC50 at 40 h [4]: 20 µg/mL (≈ 13.3 µM)

Kd [1]: 5.2 µM
MIC [5]: 1 µg/mL (≈ 0.665 µM)
MIC [6]: 1 µg/mL (≈ 0.665 µM)
Molecule: CC[C@H](C)[C@@H](NC(=O)[C@@H](NC(=O)[C@H](CCC(=O)O)NC(=O)[C@H](Cc1c[nH]c2ccccc12)NC(=O)[C@@H](CCN)NC(=O)[C@H](CCN)NC(=O)[C@H](CO)NC(=O)[C@@H](Cc1c[nH]c2ccccc12)NC(=O)[C@@H](CO)NC(=O)CNC(=O)[C@@H](CCN)NC(=O)[C@H](NC(=O)[C@H](C)N)C(C)C)C(C)C)C(=O)N[C@@H](C)C(=O)O
Kd [2]: 14.8 µM
hemolysis at 0.75 h, 400 ug/ml [3]: 41.7%
IC50 at 40 h [4]: 151 µg/mL (≈ 100 µM)
